The text below walks through data of patent US10669240B2, “5-substituted indazole-3-carboxamides and preparation and use thereof” (Samumed, LLC, priority 2014, dated 2020).

The assay addresses DYRK1A (Homo sapiens (Human), UniProt Q13627). Kind of assay: DYRK1A activity Tau assay: pSer396 Tau in SH-SY5Y cells by ELISA / western blot. In kind it is cell-based. The conditions noted are these: overnight (16-18 h) exposure. For orientation: An ELISA detects its analyte on a solid surface through an enzyme-linked reagent.
In the case of `O=C(NC1CCOCC1)c1n[nH]c2ccc(-c3cccnc3)cc12` [Compound 2, 5-(Pyridin-3-yl)-N-(tetrahydro-2H-pyran-4-yl)-1H-indazole-3-carboxamide], a half-maximal effect (EC50) was put at 31 nM.

For the molecule `CC(C)NC(=O)c1n[nH]c2ccc(-c3cccnc3)cc12` [Compound 7, N-Isopropyl-5-(pyridin-3-yl)-1H-indazole-3-carboxamide], the half-maximal effective concentration (EC50) (commonly the concentration that produces a half-maximal response) was 55 nM.

With `CN1CCC(NC(=O)c2n[nH]c3ccc(-c4cncc(CN5CCC(F)(F)C5)c4)cc23)CC1` [Compound 10, 5-(5-((3,3-Difluoropyrrolidin-1-yl)methyl)pyridin-3-yl)-N-(1-methylpiperidin-4-yl)-1H-indazole-3-carboxamide], the midpoint of the response, the EC50, lay at 8 nM.

`O=C(NC1CCCCC1)c1n[nH]c2ccc(-c3cccc(F)c3)cc12` [Compound 12, N-Cyclohexyl-5-(3-fluorophenyl)-1H-indazole-3-carboxamide] yielded an EC50 of more than 10000 nM.

Turning to `O=C(NC1CCOCC1)c1n[nH]c2ccc(-c3cccc(F)c3)cc12` [Compound 13, 5-(3-Fluorophenyl)-N-(tetrahydro-2H-pyran-4-yl)-1H-indazole-3-carboxamide], a half-maximal effect (EC50) was put at 332 nM.

Take `CN1CCC(NC(=O)c2n[nH]c3ccc(-c4ccccc4)cc23)CC1` [Compound 14, N-(1-Methylpiperidin-4-yl)-5-phenyl-1H-indazole-3-carboxamide]: the EC50 is 1150 nM.

The molecule `CN1CCC(NC(=O)c2n[nH]c3ccc(-c4cccc(F)c4)cc23)CC1` [Compound 15, 5-(3-Fluorophenyl)-N-(1-methylpiperidin-4-yl)-1H-indazole-3-carboxamide] displayed an EC50 of 324 nM.

Regarding `CN1CCC(NC(=O)c2n[nH]c3ccc(-c4ccc(F)cc4)cc23)CC1` [Compound 17, 5-(4-Fluorophenyl)-N-(1-methylpiperidin-4-yl)-1H-indazole-3-carboxamide], the midpoint of the response, the EC50, lay at 9000 nM.

Regarding `CN1CCC(NC(=O)c2n[nH]c3ccc(-c4ccc(F)cc4F)cc23)CC1` [Compound 18, 5-(2,4-Difluorophenyl)-N-(1-methylpiperidin-4-yl)-1H-indazole-3-carboxamide], the EC50 amounted to 454 nM.

Molecule `CN1CCC(NC(=O)c2n[nH]c3ccc(-c4cccc(F)c4F)cc23)CC1` [Compound 20, 5-(2,3-Difluorophenyl)-N-(1-methylpiperidin-4-yl)-1H-indazole-3-carboxamide] returned an EC50 of 29 nM.

In the case of `O=C(NC1Cc2ccccc2C1)c1n[nH]c2ccc(-c3cccnc3)cc12` [Compound 22, N-(2,3-Dihydro-1H-inden-2-yl)-5-(pyridin-3-yl)-1H-indazole-3-carboxamide], the midpoint of the response, the EC50, lay at 52 nM.

Molecule `CN(C)Cc1cncc(-c2ccc3[nH]nc(C(=O)NC4Cc5ccccc5C4)c3c2)c1` [Compound 23, N-(2,3-Dihydro-1H-inden-2-yl)-5-(5-((dimethylamino)methyl)pyridin-3-yl)-1H-indazole-3-carboxamide] had an EC50 of 31 nM.

`O=C(NC1Cc2ccccc2C1)c1n[nH]c2ccc(-c3cncc(CN4CCCCC4)c3)cc12` [Compound 24, N-(2,3-Dihydro-1H-inden-2-yl)-5-(5-(piperidin-1-ylmethyl)pyridin-3-yl)-1H-indazole-3-carboxamide] showed an EC50 of 15 nM.

The molecule `O=C(NC1Cc2ccccc2C1)c1n[nH]c2ccc(-c3cncc(CN4CCCC4)c3)cc12` [Compound 25, N-(2,3-Dihydro-1H-inden-2-yl)-5-(5-(pyrrolidin-1-ylmethyl)pyridin-3-yl)-1H-indazole-3-carboxamide] showed an EC50 of 28 nM.

Molecule `O=C(NCc1ccccc1)c1n[nH]c2ccc(-c3cncc(CN4CCCCC4)c3)cc12` [Compound 26, N-Benzyl-5-(5-(piperidin-1-ylmethyl)pyridin-3-yl)-1H-indazole-3-carboxamide] showed an EC50 of 1 nM.

As to `O=C(NCc1cccc(F)c1)c1n[nH]c2ccc(-c3cc(F)cc(CN4CCCCC4)c3)cc12` [Compound 30, 5-(3-Fluoro-5-(piperidin-1-ylmethyl)phenyl)-N-(3-fluorobenzyl)-1H-indazole-3-carboxamide], a half-maximal response (EC50) required 120 nM.

Turning to `O=C(NCc1cc(F)cc(F)c1)c1n[nH]c2ccc(-c3cc(F)cc(CN4CCCCC4)c3)cc12` [Compound 31, N-(3,5-Difluorobenzyl)-5-(3-fluoro-5-(piperidin-1-ylmethyl)phenyl)-1H-indazole-3-carboxamide], the midpoint of the response, the EC50, lay at 118 nM.

As to `O=C(NC1(c2ccccc2)CC1)c1n[nH]c2ccc(-c3cccnc3)cc12` [Compound 32, N-(1-Phenylcyclopropyl)-5-(pyridin-3-yl)-1H-indazole-3-carboxamide], it took 279 nM to reach a half-maximal effect (EC50).

The molecule `O=C(NC1(c2ccccc2)CC1)c1n[nH]c2ccc(-c3cncc(CN4CCCC4)c3)cc12` [Compound 34, N-(1-Phenylcyclopropyl)-5-(5-(pyrrolidin-1-ylmethyl)pyridin-3-yl)-1H-indazole-3-carboxamide] returned an EC50 of 233 nM.

In the case of `O=C(NC1(c2ccccc2)CC1)c1n[nH]c2ccc(-c3cncc(CN4CCCCC4)c3)cc12` [Compound 36, N-(1-Phenylcyclopropyl)-5-(5-(piperidin-1-ylmethyl)pyridin-3-yl)-1H-indazole-3-carboxamide], the response was half-maximal at 158 nM (EC50).

The molecule `CN(C)Cc1cncc(-c2ccc3[nH]nc(C(=O)NC4(c5ccccc5)CC4)c3c2)c1` [Compound 37, 5-(5-((Dimethylamino)methyl)pyridin-3-yl)-N-(1-phenylcyclopropyl)-1H-indazole-3-carboxamide] yielded an EC50 of 196 nM.

`O=C(Nc1ccc(C(F)(F)F)cn1)c1n[nH]c2ccc(-c3cccnc3)cc12` [Compound 40, 5-(Pyridin-3-yl)-N-(5-(trifluoromethyl)pyridin-2-yl)-1H-indazole-3-carboxamide] came in with an EC50 of 372 nM.

As for `O=C(Nc1cc(C(F)(F)F)ccn1)c1n[nH]c2ccc(-c3cccnc3)cc12` [Compound 41, 5-(Pyridin-3-yl)-N-(4-(trifluoromethyl)pyridin-2-yl)-1H-indazole-3-carboxamide], the EC50 is 118 nM.

With `O=C(Nc1cccc(C(F)(F)F)n1)c1n[nH]c2ccc(-c3cccnc3)cc12` [Compound 42, 5-(Pyridin-3-yl)-N-(6-(trifluoromethyl)pyridin-2-yl)-1H-indazole-3-carboxamide], the midpoint of the response, the EC50, lay at 115 nM.

`O=C(Nc1ncc(F)cc1F)c1n[nH]c2ccc(-c3cccnc3)cc12` [Compound 46, N-(3,5-Difluoropyridin-2-yl)-5-(pyridin-3-yl)-1H-indazole-3-carboxamide] gave an EC50 of 4 nM.

`O=C(Nc1ccc(F)cn1)c1n[nH]c2ccc(-c3cncc(CN4CCCCC4)c3)cc12` [Compound 57, N-(5-Fluoropyridin-2-yl)-5-(5-(piperidin-1-ylmethyl)pyridin-3-yl)-1H-indazole-3-carboxamide] had an EC50 of 2 nM.

For the molecule `O=C(Nc1ncccc1C(F)(F)F)c1n[nH]c2ccc(-c3cncc(CN4CCCCC4)c3)cc12` [Compound 59, 5-(5-(Piperidin-1-ylmethyl)pyridin-3-yl)-N-(3-(trifluoromethyl)pyridin-2-yl)-1H-indazole-3-carboxamide], the concentration giving a half-maximal response (EC50) amounted to 13 nM.

`O=C(Nc1cc(C(F)(F)F)ccn1)c1n[nH]c2ccc(-c3cncc(CN4CCCCC4)c3)cc12` [Compound 60, 5-(5-(Piperidin-1-ylmethyl)pyridin-3-yl)-N-(4-(trifluoromethyl)pyridin-2-yl)-1H-indazole-3-carboxamide] had an EC50 of 20 nM.

As to `O=C(Nc1ccc(C(F)(F)F)cn1)c1n[nH]c2ccc(-c3cncc(CN4CCCCC4)c3)cc12` [Compound 61, 5-(5-(Piperidin-1-ylmethyl)pyridin-3-yl)-N-(5-(trifluoromethyl)pyridin-2-yl)-1H-indazole-3-carboxamide], the midpoint of the response, the EC50, lay at 10 nM.

The molecule `O=C(Nc1cccc(C(F)(F)F)n1)c1n[nH]c2ccc(-c3cncc(CN4CCCCC4)c3)cc12` [Compound 62, 5-(5-(Piperidin-1-ylmethyl)pyridin-3-yl)-N-(6-(trifluoromethyl)pyridin-2-yl)-1H-indazole-3-carboxamide] gave an EC50 of 5 nM.

Regarding `[2H]C([2H])(c1cncc(-c2ccc3[nH]nc(C(=O)Nc4cccnc4)c3c2)c1)N1CCCCC1` [Compound 63, 5-(5-(piperidin-1-ylmethyl-d2)pyridin-3-yl)-N-(pyridin-3-yl)-1H-indazole-3-carboxamide], it took 1 nM to reach a half-maximal effect (EC50).

In turn, `O=C(Nc1c(F)cncc1F)c1n[nH]c2ccc(-c3cncc(CN4CCCCC4)c3)cc12` [Compound 79, N-(3,5-Difluoropyridin-4-yl)-5-(5-(piperidin-1-ylmethyl)pyridin-3-yl)-1H-indazole-3-carboxamide] registered an EC50 of 1 nM.

Take `CC(C)N1CCC(NC(=O)c2n[nH]c3ccc(-c4cccc(F)c4F)cc23)CC1` [Compound 92, 5-(2,3-Difluorophenyl)-N-(1-isopropylpiperidin-4-yl)-1H-indazole-3-carboxamide]: the midpoint of the response, the EC50, lay at 100 nM.

Take `CC(C)CN1CCC(NC(=O)c2n[nH]c3ccc(-c4cccc(F)c4F)cc23)CC1` [Compound 93, 5-(2,3-Difluorophenyl)-N-(1-isobutylpiperidin-4-yl)-1H-indazole-3-carboxamide]: a half-maximal effect (EC50) was put at 73 nM.

`CN1CCC(NC(=O)c2n[nH]c3ccc(-c4ccc(C(F)(F)F)nc4)cc23)CC1` [Compound 94, N-(1-Methylpiperidin-4-yl)-5-(6-(trifluoromethyl)pyridin-3-yl)-1H-indazole-3-carboxamide] had an EC50 of more than 10000 nM.

In turn, `O=C(Nc1ccnc(N2CCCCC2)c1)c1n[nH]c2ccc(-c3cncc(CN4CCCCC4)c3)cc12` [Compound 101, N-(2-(Piperidin-1-yl)pyridin-4-yl)-5-(5-(piperidin-1-ylmethyl)pyridin-3-yl)-1H-indazole-3-carboxamide] yielded an EC50 of 1 nM.

`O=C(Nc1ccnc(N2CCCC2)c1)c1n[nH]c2ccc(-c3cccnc3)cc12` [Compound 102, 5-(Pyridin-3-yl)-N-(2-(pyrrolidin-1-yl)pyridin-4-yl)-1H-indazole-3-carboxamide]: the EC50 turned out to be 4 nM.

With `CC(C)NC(=O)c1n[nH]c2ccc(-c3cncc(CN4CCC4)c3)cc12` [Compound 128, 5-(5-(Azetidin-1-ylmethyl)pyridin-3-yl)-N-isopropyl-1H-indazole-3-carboxamide], the EC50 came out at 43 nM.
